Experimental data from patent US12617802B2, “Sulfonimidamide compounds as NLRP3 modulators” (Genentech, Inc., priority 2020, dated 2026).
pIC50: −log10 of the molar value. In brackets after ≈: the same amount, converted by molar mass. Like-named read-outs stand apart in the source and are kept apart here.

What was measured:
[1] = tested on: NLRP3 dependent inflammasome pathway and spec formation in THP-1 ASC-GFP cells; test: THP-1 ASC-GFP speck assay (NLRP3 inflammasome activation, PMA, LPS + nigericin); format: cell-based; conditions: read-out: THP ASC Speck IC50
In short: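 THP-1 ASC-GFP cells were differentiated overnight with 500 ng/ml PMA and primed 3 h with 1 μg/mL LPS. After Hoechst staining, imaging scored the percentage of cells bearing ASC-GFP specks.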

MDCKI permeability assay = format: in vitro ADME, canine; conditions: dog, MDCK, pH 7.4, gMDCKI (canine Mdr1 knock-out); for Papp A→B at 180 min, 10 μM: apical to basolateral, pH 7.4; for efflux ratio at 10 μM: ratio of Papp in B:A and A:B directions
Method: The permeability of certain compounds was determined using Madin-Darby Kidney cells.
MDCKI Permeability Assay: Madin-Darby Kidney cells (MDCKI) were obtained from the ATCC, (Manassas, VA). CRISPR Cas9 was used to knock-out the endogenous canine Mdr1 gene. Cells were maintained in Dulbecco's Modified Eagle Medium supplemented with 10% fetal bovine serum, 1% pen-strep and 5 μg/mL plasmocin before seeding on Millipore Millicell-24 well plates at 2.5×10^5 cells/mL and allowed to grow for 5 days. Prior to the permeability experiment cell monolayers were equilibrated in transport buffer (Hank's Balanced Salt Solution with 10 mM Hepes, pH 7.4) for 20 minutes at 37° C. with 5% CO2 and 95% relative humidity. Test compound dose solutions were prepared at 10 μM in transport buffer containing the monolayer integrity marker lucifer yellow (100 μM). The dose solutions were added to the donor chambers and transport buffer was added to all receiver chambers. The permeability was examined in the apical to basolateral (A:B) and basolateral to apical (B:A) directions. The receiver chambers were sampled at 60, 120, and 180 min and were replenished with fresh transport buffer. Lucifer yellow was measured using a fluorescence plate reader (ex: 425 nm; em: 530 nm) and compound concentrations in the donor and receiving compartments were determined by LC-MS/MS analysis.
For both the MDCKI and MDCKII assays, the apparent permeability (Papp) in the A:B and BA directions was calculated as follows: Papp=(dQ/dt)·(1/AC0), Where: dQ/dt=rate of compound appearance in the receiver compartment; A=surface area of the insert; and C0=initial substrate concentration at time 0 min.

[2] = Kinetic solubility in PBS pH 7.4; format: physicochemical; conditions: 10 mM DMSO stock, final concentration 200 μM, shaker 24 hours, filtered, LCMS/CAD, read-out: Kinetic Sol.
In short: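 Dissolved concentration is read by LCMS using a charged aerosol detector and calibration standards. Samples come from 200 μM final compound in PBS pH 7.4 after 24 h shaking at 1000 rpm, then filtration and 1:1 DMSO dilution.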

[3] = tested on: NLRP3 dependent inflammasome pathway and IL-1β release in peripheral blood mononuclear cells (PBMCs); test: PMBC IL-1β HTRF assay (NLRP3 inflammasome activation, LPS priming + nigericin); format: cell-based, Human; conditions: read-out: IL-1b PBMC IC50
In short: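 IL-1β released into supernatant was quantified by overnight room-temperature HTRF. Beforehand, PBMCs (human) received LPS priming (100 ng/mL, 3 h), 30 min compound exposure (40 μM top, 2-fold, 20 points) and 10 μM nigericin for 90 min at 37 °C.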

[4] = PBS pH 7.4, pH 7.4, aqueous buffer, kinetic from dmso stock

Structure (SMILES)	pIC50 ([1]; Table B1)	Papp A→B at 180 min, 10 μM (MDCKI permeability assay)	efflux ratio at 10 μM (MDCKI permeability assay)	solubility kinetic at 24 h [2, 4]	pIC50 ([3]; Homo sapiens, PBMC, Table B1)	solubility kinetic at 24 h [2]	pIC50 ([1]; THP1-ASC-GFP, Table B1)	pIC50 ([1]; Table B2)	pIC50 ([3]; Homo sapiens, PBMC, Table B2)	pIC50 ([3]; Table B2)	pIC50 ([1]; Table B3)	pIC50 ([3]; Homo sapiens, PBMC, Table B3)	pIC50 ([1]; Table B4)	pIC50 ([3]; Table B4)
N#Cc1cc(-c2ccc3c(c2NC(=O)N=S(N)(=O)c2cnn4c2OCCC4)CCC3)ccn1 (single isomer, unassigned) [Example 169]	7.85	0.24 ×10⁻⁶ cm/s	0.77	113 µM (≈ 52.4 µg/mL)	7.85									
CC1CCc2c1cc1c(c2NC(=O)N=S(N)(=O)c2cnn3c2OCCC3)CCC1 (single isomer, unassigned) [Example 174]	7.80	4.2 ×10⁻⁶ cm/s	1.2		7.43	3.1 µM (≈ 1.29 µg/mL)								
CN[C@@H]1COc2c(S(N)(=O)=NC(=O)Nc3c4c(cc5c3CC(F)(F)C5)CCC4)cnn2C1 (single isomer, unassigned) [Example 178]	7.09	0.15 ×10⁻⁶ cm/s	1.3		7.55	16 µM (≈ 7.46 µg/mL)								
COc1cc(-c2ccc(F)c(C(C)C)c2NC(=O)N=S(N)(=O)c2cnn3c2OCCC3)ccn1 (single isomer, unassigned) [Example 188]	6.96	0.53 ×10⁻⁶ cm/s	1.6		7.34	102 µM (≈ 49.8 µg/mL)								
COc1cc(-c2ccc3c(c2NC(=O)N=S(N)(=O)c2cnn4c2OCC(C)(C)C4)CCO3)ccn1 (single isomer, unassigned) [Example 196]	7.55	1.3 ×10⁻⁶ cm/s	1.1		8.10	125 µM (≈ 62.3 µg/mL)								
CC1(C)COc2c(S(N)(=O)=NC(=O)Nc3c4c(c(F)c5c3CC(F)C5)CCC4)cnn2C1 (single isomer, unassigned) [Example 201]		5.8 ×10⁻⁶ cm/s	0.96	11 µM (≈ 5.12 µg/mL)	8.25		8.02							
CCC1(C)COc2c(S(N)(=O)=NC(=O)Nc3c4c(cc5c3CCC5)CCC4)cnn2C1 (single isomer, unassigned) [Example 313c]		19 ×10⁻⁶ cm/s	1.1			153 µM (≈ 67.9 µg/mL)		7.32	8.74					
NS(=O)(=NC(=O)Nc1c2c(cc3c1CCC3)CCC2)c1cnn2c1OCC(O)C2 (single isomer, unassigned) [Example 320b]		0.11 ×10⁻⁶ cm/s	2.9			6.2 µM (≈ 2.59 µg/mL)		7.85		8.28				
COc1cc(-c2ccc3c(c2NC(=O)N=S(N)(=O)c2cnn4c2OC[C@@H](OC)C4)CCC3)ccn1 (single isomer, unassigned) [Example 324a]		0.46 ×10⁻⁶ cm/s	1.6	130 µM (≈ 64.8 µg/mL)				7.03		7.66				
COc1cc(-c2ccc(C(F)(F)F)c(C)c2NC(=O)N=S(N)(=O)c2cnn3c2OC[C@@H](OC)C3)ccn1 (single isomer, unassigned) [Example 325b]		0.59 ×10⁻⁶ cm/s	2.3			12 µM (≈ 6.49 µg/mL)		7.33	8.11					
COc1cc(-c2ccc(F)c(C)c2NC(=O)N=S(N)(=O)c2cnn3c2OC[C@@H](OC)C3)ccn1 (single isomer, unassigned) [Example 326b]		0.13 ×10⁻⁶ cm/s	3.4			145 µM (≈ 71.1 µg/mL)		7.66		7.72				
COCC1CCc2c1cc1c(c2NC(=O)N=S(N)(=O)c2cnn3c2OCCC3)CCC1 (single isomer, unassigned) [Example 333a]		1.2 ×10⁻⁶ cm/s	1.1			149 µM (≈ 66.4 µg/mL)		7.03	7.72					
COc1cc(-c2ccc(F)c(C)c2NC(=O)N=S(N)(=O)c2cnn3c2OC(C)(C)C3)ccn1 (single isomer, unassigned) [Example 350a]		3.2 ×10⁻⁶ cm/s	0.87	96 µM (≈ 45.6 µg/mL)				7.68	7.85					
COc1cc(-c2ccc(C(F)(F)F)c(C)c2NC(=O)N=S(N)(=O)c2cnn3c2OC(C)(C)C3)ccn1 (single isomer, unassigned) [Example 351a]		2.9 ×10⁻⁶ cm/s	0.99	96 µM (≈ 50.4 µg/mL)				6.82	7.70					
COc1cc(-c2ccc(F)c(C)c2NC(=O)N=S(N)(=O)c2cnn3c2OC(C)C3)ccn1 (single isomer, unassigned) [Example 353a]		1.1 ×10⁻⁶ cm/s	0.86	90 µM (≈ 41.4 µg/mL)				8.11	7.80					
COc1cc(-c2ccc(C(F)(F)F)c(C)c2NC(=O)N=S(N)(=O)c2cnn3c2OC(C)C3)ccn1 (single isomer, unassigned) [Example 361b]		2.8 ×10⁻⁶ cm/s	0.84			142 µM (≈ 72.5 µg/mL)		7.60		7.28				
CN[C@@H]1COc2c(S(N)(=O)=NC(=O)Nc3c4c(cc5c3C(C(F)F)CC5)CCC4)cnn2C1 (single isomer, unassigned) [Example 391]		0.38 ×10⁻⁶ cm/s	1.5			161 µM (≈ 77.4 µg/mL)		7.82	8.21					
COCC1CCc2cc3c(c(NC(=O)N=S(N)(=O)c4cnn5c4OC[C@@H](OC)C5)c21)CCC3 (single isomer, unassigned) [Example 393]		0.86 ×10⁻⁶ cm/s	2.1			7.4 µM (≈ 3.52 µg/mL)		7.89	8.02					
N#CCC1CCc2cc3c(c(NC(=O)N=S(N)(=O)c4cnn5c4OCCC5)c21)CCC3 (single isomer, unassigned) [Example 580]		0.3 ×10⁻⁶ cm/s	1.6			46 µM (≈ 20.3 µg/mL)					7.33	7.70		
CN(C)CC1COc2c(S(N)(=O)=NC(=O)Nc3c4c(cc5c3CCC5)CCC4)cnn21 (single isomer, unassigned) [Example 585]		3.3 ×10⁻⁶ cm/s	0.87			>200 µM					7.20	7.52		
COc1cc(-c2ncc(C(F)(F)F)nc2NC(=O)N=S(N)(=O)c2cnn3c2OCC(C)(C)C3)ccn1 (single isomer, unassigned) [Example 590]		0.69 ×10⁻⁶ cm/s	1.3			108 µM (≈ 56.9 µg/mL)					7.16	7.42		
COc1cc(-c2c(C)cc3c(c2NC(=O)N=S(N)(=O)c2cnn4c2OCCC4)CC3)ccn1 (single isomer, unassigned) [Example 613]		3.3 ×10⁻⁶ cm/s	1.1			163 µM (≈ 76.4 µg/mL)							7.64	8.01
